Reference: PMC10502144, “Anti-methicillin-resistant Staphylococcus aureus activity and safety evaluation of 14-O-[(5-ethoxycarbonyl-4,6-dimethylpyrimidine-2-yl) thioacetyl] mutilin (EDT)” (Scientific Reports, 2023)
≈ marks a conversion by molar mass, not a printed value. Read-outs that look alike come from different tables or passages of the source.

Assays:
MRSA-337371 [1] = assay: Post-antibiotic effect (PAE) test, viable counting; format: cell-based, methicillin-resistant Staphylococcus aureus; details: 1 h exposure
Description: The PAE of EDT against MRSA-337371 was determined using a standard viable counting method. We selected 1 × , 2 × , 4 × and 8 × MICs of EDT and tiamulin (0.0313 and 0.5 μg/mL, respectively), to conduct PAE test on MRSA strains. The strains (1 × 10^5 CFU/mL) were placed in MHB broth test tubes containing the above four concentrations of EDT and tiamulin, respectively, and cultured in a shaking bed at 37 °C for 1 h, followed by centrifuging for 10 min at 4000 r/min. The supernatants were discarded and the precipitations were dissolved with 2 mL normal saline to centrifuge. The same procedure was repeated three times. The final bacterial precipitates were taken and cultured in MHB broth with the initial concentration of 5.5 Log CFU/mL at 37 °C in a shaking bed. Samples were then taken at 0, 1, 2, 3, 4, 5, 6, 8, 12, 18 and 24 h to dilute 10–100,000 times and the 10 μL dilutions were evenly smear on MHA plate medium to culture at 37 °C for 48 h. Finally, the average numbers of colonies on the plates were obtained and the PAE values were calculated as hour using equation PAE = T − C, in which T was the time required for the increase of 1 log10 CFU/mL after the removal of drugs and C was the time required for the number of MRSA in the control tube to increase by 1 log10 CFU/mL. Experiments were performed in triplicate.

MRSA-337371 [2] = assay: microbe, parasite or virus in culture; format: cell-based, methicillin-resistant Staphylococcus aureus; details: for MIC: Staphylococcus aureus, MRSA
Description: We performed resistance induction tests on EDT and tiamulin which was used as a referent drug. […] Finally, MRSA was cultured for 30 generations with the same procedure. At the 31st generation, drugs were removed until 40th generation and MICs were determined in each generation.

[3] = test system: GFP expression in S. aureus ATCC 29,213; assay: Green fluorescent protein (GFP) inhibition assay; format: cell-based, Staphylococcus aureus; details: 1 and 4 μM, co-incubation 4 h, fluorescence microscopy
Description: The inhibition assay against GFP expression was performed according to our previous report[41] with minor modification. Plasmids carried erythromycin resistant genes were labeled with GFP and electrotransformed into S. aureus. After screenings using erythromycin, S. aureus strain expressing GFP was then obtained and grown to mid-logarithmic phase, followed by collecting centrifugally and re-suspending with PBS buffer. The obtained suspensions were co-incubated with EDT and tiamulin with the final concentrations of 1 and 4 μM, respectively, for 4 h at 37 °C. The cells were subsequently collected by centrifugation to perform imaging using fluorescence microscopy after re-suspending with PBS buffer.

[4] = Cytotoxicity assay (CCK-8), HepG2; format: cell-based; details: human, HepG2 cells
Description: Cytotoxicity of EDT and tiamulin was studied against human hepatocellular carcinoma cells (HepG2) and human embryonic kidney 293T (HEK293T) cells following a protocol as published in our earlier reports[41],[42]. Cells were counted and inoculated into 96-well plates with approximately10^5 cells density for incubating 24 h at 37 °C. […] The same procedure was repeated three times. The percentages of cell viability were calculated by the formula: Cell viability (%) = [Asample ‒ Anegative]/[Apositve ‒ Anegative] × 100%.

C=CC1(C)CC(OC(=O)CSc2nc(C)c(C(=O)OCC)c(C)n2)C2(C)C(C)CCC3(CCC(=O)C32)C(C)C1O (stereo not drawn) [EDT, 14-O-[(5-ethoxycarbonyl-4,6-dimethylpyrimidine-2-yl)thioacetyl] mutilin]
PAE values, concentration dependence (MRSA-337371 [1]; 1×, 2×, 4× and 8× MIC): increased PAE values in a concentration-dependent manner | PAE values compared with tiamulin (MRSA-337371 [1]; at four tested concentrations (1×, 2×, 4×, 8× MIC)): extremely significantly higher than that of tiamulin | increase of MIC (MRSA-337371 [2]; 30 generations under the subinhibitory concentration (1/4 MIC)): fourfold | MIC (MRSA-337371 [2]; 24 h, read-out: MIC in the resistance development study, day 1): 0.0313 µg/mL (≈ 0.0546 µM) | MIC (MRSA-337371 [2]; 48 h, read-out: MIC in the resistance development study, day 2): 0.0313 µg/mL (≈ 0.0546 µM) | MIC (MRSA-337371 [2]; 72 h, read-out: MIC in the resistance development study, day 3): 0.0313 µg/mL (≈ 0.0546 µM) | MIC (MRSA-337371 [2]; 96 h, read-out: MIC in the resistance development study, day 4): 0.0313 µg/mL (≈ 0.0546 µM) | MIC (MRSA-337371 [2]; 120 h, read-out: MIC in the resistance development study, day 5): 0.0313 µg/mL (≈ 0.0546 µM) | MIC (MRSA-337371 [2]; 144 h, read-out: MIC in the resistance development study, day 6): 0.0313 µg/mL (≈ 0.0546 µM) | MIC (MRSA-337371 [2]; 168 h, read-out: MIC in the resistance development study, day 7): 0.0313 µg/mL (≈ 0.0546 µM) | MIC (MRSA-337371 [2]; 192 h, read-out: MIC in the resistance development study, day 8): 0.0313 µg/mL (≈ 0.0546 µM) | MIC (MRSA-337371 [2]; 216 h, read-out: MIC in the resistance development study, day 9): 0.0313 µg/mL (≈ 0.0546 µM) | MIC (MRSA-337371 [2]; 240 h, read-out: MIC in the resistance development study, day 10): 0.0313 µg/mL (≈ 0.0546 µM) | MIC (MRSA-337371 [2]; 264 h, read-out: MIC in the resistance development study, day 11): 0.0313 µg/mL (≈ 0.0546 µM) | MIC (MRSA-337371 [2]; 288 h, read-out: MIC in the resistance development study, day 12): 0.0625 µg/mL (≈ 0.109 µM) | MIC (MRSA-337371 [2]; 312 h, read-out: MIC in the resistance development study, day 13): 0.0625 µg/mL (≈ 0.109 µM) | MIC (MRSA-337371 [2]; 336 h, read-out: MIC in the resistance development study, day 14): 0.0313 µg/mL (≈ 0.0546 µM) | MIC (MRSA-337371 [2]; 360 h, read-out: MIC in the resistance development study, day 15): 0.0313 µg/mL (≈ 0.0546 µM) | MIC (MRSA-337371 [2]; 384 h, read-out: MIC in the resistance development study, day 16): 0.0313 µg/mL (≈ 0.0546 µM) | MIC (MRSA-337371 [2]; 408 h, read-out: MIC in the resistance development study, day 17): 0.0625 µg/mL (≈ 0.109 µM) | MIC (MRSA-337371 [2]; 432 h, read-out: MIC in the resistance development study, day 18): 0.0625 µg/mL (≈ 0.109 µM) | MIC (MRSA-337371 [2]; 456 h, read-out: MIC in the resistance development study, day 19): 0.0625 µg/mL (≈ 0.109 µM) | MIC (MRSA-337371 [2]; 480 h, read-out: MIC in the resistance development study, day 20): 0.125 µg/mL (≈ 0.218 µM) | MIC (MRSA-337371 [2]; 504 h, read-out: MIC in the resistance development study, day 21): 0.125 µg/mL (≈ 0.218 µM) | MIC (MRSA-337371 [2]; 528 h, read-out: MIC in the resistance development study, day 22): 0.125 µg/mL (≈ 0.218 µM) | MIC (MRSA-337371 [2]; 552 h, read-out: MIC in the resistance development study, day 23): 0.125 µg/mL (≈ 0.218 µM) | MIC (MRSA-337371 [2]; 576 h, read-out: MIC in the resistance development study, day 24): 0.125 µg/mL (≈ 0.218 µM) | MIC (MRSA-337371 [2]; 600 h, read-out: MIC in the resistance development study, day 25): 0.125 µg/mL (≈ 0.218 µM) | MIC (MRSA-337371 [2]; 624 h, read-out: MIC in the resistance development study, day 26): 0.125 µg/mL (≈ 0.218 µM) | MIC (MRSA-337371 [2]; 648 h, read-out: MIC in the resistance development study, day 27): 0.125 µg/mL (≈ 0.218 µM) | MIC (MRSA-337371 [2]; 672 h, read-out: MIC in the resistance development study, day 28): 0.125 µg/mL (≈ 0.218 µM) | MIC (MRSA-337371 [2]; 696 h, read-out: MIC in the resistance development study, day 29): 0.125 µg/mL (≈ 0.218 µM) | MIC (MRSA-337371 [2]; MRSA-337371, MIC used to set 1×-8× MIC in the PAE test): 0.0313 µg/mL (≈ 0.0546 µM) | MIC (MRSA-337371 [2]; read-out: MIC in the resistance development study, day 30): 0.125 µg/mL (≈ 0.218 µM) | MIC (MRSA-337371 [2]; read-out: MIC in the resistance development study, day 31, drugs removed): 0.125 µg/mL (≈ 0.218 µM) | MIC (MRSA-337371 [2]; read-out: MIC in the resistance development study, day 32, drugs removed): 0.125 µg/mL (≈ 0.218 µM) | MIC (MRSA-337371 [2]; read-out: MIC in the resistance development study, day 33, drugs removed): 0.0625 µg/mL (≈ 0.109 µM) | MIC (MRSA-337371 [2]; read-out: MIC in the resistance development study, day 34, drugs removed): 0.0625 µg/mL (≈ 0.109 µM) | MIC (MRSA-337371 [2]; read-out: MIC in the resistance development study, day 35, drugs removed): 0.0313 µg/mL (≈ 0.0546 µM) | MIC (MRSA-337371 [2]; read-out: MIC in the resistance development study, day 36, drugs removed): 0.0313 µg/mL (≈ 0.0546 µM) | MIC (MRSA-337371 [2]; read-out: MIC in the resistance development study, day 37, drugs removed): 0.0313 µg/mL (≈ 0.0546 µM) | MIC (MRSA-337371 [2]; read-out: MIC in the resistance development study, day 38, drugs removed): 0.0313 µg/mL (≈ 0.0546 µM) | MIC (MRSA-337371 [2]; read-out: MIC in the resistance development study, day 39, drugs removed): 0.0313 µg/mL (≈ 0.0546 µM) | MIC (MRSA-337371 [2]; read-out: MIC in the resistance development study, day 40, drugs removed): 0.0313 µg/mL (≈ 0.0546 µM) | sensitivity of MRSA after removing drugs (MRSA-337371 [2]; after removing drugs and culturing for additional 10 generations): recovered the initial sensitivity | increase in the MIC values (MRSA-337371 [2]; at 22 generations): fourfold | inhibition of GFP expression (green fluorescence intensity) [3]: effectively inhibited the expression of GFP | viability at 6 h, 100 µM ([4]; HepG2, 100 μM, read-out: cell viability): 99.7% | CC50 at 6 h ([4]; HepG2, 200 μM converted to μg/mL): > 115 µg/mL | viability at 6 h, 200 µM ([4]; HepG2, 200 μM, read-out: cell viability): 77.5% | CC50 at 6 h ([4]; HepG2, deduced from Fig. 5): > 200 µM
